Data: ChEMBL document CHEMBL5335777 (Eur J Med Chem, 2023)
Active and inactive are the calls of the source. No cut-off for these calls is given here.

What was measured:
[1] = Toxicity in immunodeficient NOD-SCID mouse xenografted with human LCLC-103H cells harboring wild type KRAS assessed as body weight at 5 to 30 mg/kg, ip administered for 5 times at 5 mg/kg in first week followed by administration at 20 mg/kg 5 times in second week and further administered 30 mg/kg 3 times in third week measured 17 days post treatment initiation and 35 days post tumor transplantation (reference value: 2.6 g); type: organism-based; conditions: in vivo, 408 h, dose 5-30 mg/kg, time 17 day
MIA PaCa-2 = assay: Antiproliferative activity against human MIA PaCa-2 cells harboring homozygous KRAS G12C mutant assessed as inhibition of cell growth incubated for 72 hrs by MTT assay; type: functional, cell-based; conditions: MIA PaCa-2, 72 h
A549 = assay: Antiproliferative activity against human A549 cells harboring homozygous KRAS G12S mutant assessed as inhibition of cell growth incubated for 72 hrs by MTT assay; type: functional, cell-based; conditions: A549, 72 h
[2] = system: GTPase KRas (Homo sapiens), P01116 [G12C]; assay: Covalent binding affinity to GDP-bound human KRAS-4B G12C mutant (1 to 169 residues) expressed in Escherichia coli BL21 Rosetta cells assessed as reduction in free Cys residues at 200 uM measured after 1 hr by Ellman's assay
NCI-H1792 [3] = assay: Antiproliferative activity against human NCI-H1792 cells harboring KRAS G12C mutant assessed as cell viability at 25 uM incubated for 72 hrs by MTT assay relative to control; type: functional; conditions: read-out: Activity
[4] = system: GTPase KRas (Homo sapiens), P01116 [G12C]; assay: Covalent binding affinity to GDP-bound human KRAS-4B G12C mutant (1 to 169 residues) expressed in Escherichia coli BL21 Rosetta cells at 200 uM measured after 4 hrs by Ellman's assay
[5] = Cytotoxicity against human MRC5 cells assessed as inhibition of cell growth incubated for 72 hrs by MTT assay; type: toxicity, cell-based
Homo sapiens [6] = species on record: Homo sapiens; assay: Inhibition of GDP-bound human KRAS 149stop G12C mutant expressed in Escherichia coli BL21 Rosetta cells assessed as inhibition of EDTA mediated nucleotide exchange at 250 uM measured after 24 hrs by fluorescence based analysis
BXPC-3 = assay: Antiproliferative activity against human BXPC-3 cells harboring wild type KRAS assessed as inhibition of cell growth incubated for 72 hrs by MTT assay; type: functional, cell-based; conditions: BXPC-3, 72 h
NCI-H1792 [7] = assay: Antitumor activity against human NCI-H1792 cells harboring KRAS G12C mutant xenografted in immunodeficient NOD-SCID mouse assessed as reduction in tumor growth at 5 to 30 mg/kg, ip administered for 5 times at 5 mg/kg in first week followed by administration at 20 mg/kg 5 times in second week and further administered 30 mg/kg 3 times in third week measured 17 days post treatment initiation and 35 days post tumor transplantation by digital caliper based analysis relative to control; type: functional; set-up: scale not given: the % may be the effect or the level left; conditions: dose 5-30 mg/kg, time 17 day
[8] = system: GTPase KRas (Homo sapiens), P01116 [G12C]; assay: Binding affinity to Cys118 residue of GDP bound human KRAS-4B G12C mutant (1 to 169 residues) expressed in Escherichia coli BL21 Rosetta cells at 150 to 500 uM measured after 96 hrs by 1H-15N HSQC NMR spectral analysis; conditions: dose 150-500 µM
[9] = Volume of distribution in NOD-SCID mouse at 15 mg/kg, ip administered as single dose and measured upto 48 hrs by HPLC/MS analysis; type: ADME, organism-based; conditions: in vivo
[10] = system: GTPase KRas (Homo sapiens), P01116 [G12C]; assay: Binding affinity to Cys51 residue of GDP bound human KRAS-4B G12C mutant (1 to 169 residues) expressed in Escherichia coli BL21 Rosetta cells at 150 to 500 uM measured after 96 hrs by 1H-15N HSQC NMR spectral analysis; conditions: dose 150-500 µM
SW1573 = assay: Antiproliferative activity against human SW1573 cells harboring homozygous KRAS G12C mutant assessed as inhibition of cell growth incubated for 72 hrs by MTT assay; type: functional, cell-based; conditions: SW1573, 72 h
PANC-1 = assay: Antiproliferative activity against human PANC-1 cells harboring heterozygous KRAS G12D mutant assessed as inhibition of cell growth incubated for 72 hrs by MTT assay; type: functional, cell-based; conditions: PANC-1, 72 h
[11] = Cytotoxicity against HUVEC cells immortalized with TERT assessed as inhibition of cell growth incubated for 72 hrs by MTT assay; type: toxicity, cell-based; conditions: human
[12] = Toxicity in immunodeficient NOD-SCID mouse xenografted with human NCI-H1792 cells harboring KRAS G12C mutant assessed as body weight at 5 to 30 mg/kg, ip administered for 5 times at 5 mg/kg in first week followed by administration at 20 mg/kg 5 times in second week and further administered 30 mg/kg 3 times in third week measured 17 days post treatment initiation and 35 days post tumor transplantation (reference value: 6.6 g); type: organism-based; conditions: in vivo, 408 h, dose 5-30 mg/kg, time 17 day
LCLC-103H cell line [13] = assay: Antitumor activity against human LCLC-103H cells harboring wild type KRAS xenografted in immunodeficient NOD-SCID mouse assessed as tumor volume at 5 to 30 mg/kg, ip administered for 5 times at 5 mg/kg in first week followed by administration at 20 mg/kg 5 times in second week and further administered 30 mg/kg 3 times in third week measured 17 days post treatment initiation and 35 days post tumor transplantation by digital caliper based analysis; type: functional; conditions: dose 5-30 mg/kg, time 17 day
[14] = Clearance in NOD-SCID mouse at 15 mg/kg, ip administered as single dose and measured upto 48 hrs by HPLC/MS analysis; type: ADME, organism-based; conditions: in vivo
NCI-H358 = assay: Antiproliferative activity against human NCI-H358 cells harboring heterozygous KRAS G12C mutant assessed as inhibition of cell growth incubated for 72 hrs by MTT assay; type: functional, cell-based; conditions: NCI-H358, 72 h
[15] = Cytotoxicity against human CCD-986Sk cells assessed as inhibition of cell growth incubated for 72 hrs by MTT assay; type: toxicity, cell-based
NCI-H1792 [16] = assay: Antiproliferative activity against human NCI-H1792 cells harboring KRAS G12C mutant assessed as reduction in cell viability at 2.5 uM incubated for 72 hrs by MTT assay; type: functional, cell-based
LCLC-103H cell line [17] = assay: Antiproliferative activity against human LCLC-103H cells harboring wild type KRAS assessed as inhibition of cell growth incubated for 72 hrs by MTT assay; type: functional, cell-based
[18] = Toxicity in immunodeficient NOD-SCID mouse xenografted with human NCI-H1792 cells harboring KRAS G12C mutant assessed as body weight at 5 to 30 mg/kg, ip administered for 5 times at 5 mg/kg in first week followed by administration at 20 mg/kg 5 times in second week and further administered 30 mg/kg 3 times in third week measured 20 days post treatment initiation and 38 days post tumor transplantation (reference value: 6.6 g); type: organism-based; conditions: in vivo, 480 h, dose 5-30 mg/kg, time 20 day
[19] = Cmax in NOD-SCID mouse at 15 mg/kg, ip administered as single dose and measured upto 48 hrs by HPLC/MS analysis; type: ADME, organism-based; set-up: time < 48 hrs, dose 15 mg/kg, route ip; conditions: in vivo
Homo sapiens [20] = species on record: Homo sapiens; assay: Inhibition of GDP-bound human KRAS 149stop G12C mutant expressed in Escherichia coli BL21 Rosetta cells assessed as inhibition of SOS1 mediated nucleotide exchange at 250 uM measured after 24 hrs by fluorescence based analysis
SW480 = assay: Antiproliferative activity against human SW480 cells harboring homozygous KRAS G12V mutant assessed as inhibition of cell growth incubated for 72 hrs by MTT assay; type: functional, cell-based; conditions: SW480, 72 h

O=Cc1c(O)ccc2ccccc12
Activity [1]: 0 g
IC50 (MIA PaCa-2): 24.5 µM
IC50 (A549): 43.3 µM
Activity [2]: Active
viability at 25 µM (NCI-H1792 [3]): < 50%
Activity [4]: 100%
IC50 at 72 h [5]: 25 µM
inhibition (Homo sapiens [6]): Active
IC50 (BXPC-3): 46.9 µM
Activity (NCI-H1792 [7]): 32.5%
Activity [8]: inactive
Vd [9]: 63.6 mL
Activity [10]: inactive
IC50 (SW1573): 24.2 µM
IC50 (PANC-1): 27.6 µM
IC50 at 72 h [11]: 10.8 µM
Activity [12]: 5.2 g
Activity (LCLC-103H cell line [13]): 9.2 mm3
CL/F [14]: 0.183 mL/min
IC50 (NCI-H358): 12.3 µM
IC50 at 72 h [15]: 66.2 µM
Activity (NCI-H1792 [16]): Active
IC50 (LCLC-103H cell line [17]): 32.4 µM
Activity [18]: 4.9 g
Cmax [19]: 27400 ng/mL
inhibition (Homo sapiens [20]): Active
IC50 (SW480): 44.5 µM
